Active and inactive are the calls of the source. The rule behind the calls is not given here.
System: CCRIS mutagenicity, Ames/micronucleus/aberration tests
Assay: CCRIS mutagenicity studies
[1] = Test System: AMES SALMONELLA TYPHIMURIUM, Strain/Indicator: TA98, Metabolic Activation: NONE, Method: STANDARD PLATE
[2] = Test System: AMES SALMONELLA TYPHIMURIUM, Strain/Indicator: TA1537, Metabolic Activation: NONE, Method: PREINCUBATION

Cc1c(C)c2c(nc(N)n2C)c2nccnc12
mutagenic call (Test System: AMES SALMONELLA TYPHIMURIUM, Strain/Indicator: TA98, Metabolic Activation: RAT, LIVER, S-9, AROCLOR 1254, Method: STANDARD PLATE): active; positive

O=C(O)c1ccc([N+](=O)[O-])cc1
mutagenic call (Test System: AMES SALMONELLA TYPHIMURIUM, Strain/Indicator: TA98, Metabolic Activation: HAMSTER, LIVER, S-9, AROCLOR 1254 (10%), Method: PREINCUBATION): inactive; negative
mutagenic call [1]: active; positive
mutagenic call (Test System: AMES SALMONELLA TYPHIMURIUM, Strain/Indicator: TA98, Metabolic Activation: RAT, LIVER, S-9, AROCLOR 1254 (10%), Method: PREINCUBATION): inactive; negative
mutagenic call (Test System: AMES SALMONELLA TYPHIMURIUM, Strain/Indicator: TA98, Metabolic Activation: RAT, LIVER, S-9, KANECHLOR 500, Method: PREINCUBATION): inactive; negative
mutagenic call (Test System: AMES SALMONELLA TYPHIMURIUM, Strain/Indicator: TA100, Metabolic Activation: HAMSTER, LIVER, S-9, AROCLOR 1254 (10%), Method: PREINCUBATION): active; positive
mutagenic call (Test System: AMES SALMONELLA TYPHIMURIUM, Strain/Indicator: TA100, Metabolic Activation: HAMSTER, LIVER, S-9, AROCLOR 1254, FLAVIN MONONUCLEOTIDE, Method: PREINCUBATION): active; positive
mutagenic call (Test System: AMES SALMONELLA TYPHIMURIUM, Strain/Indicator: TA100, Metabolic Activation: HAMSTER, LIVER, S-9, AROCLOR 1254, Method: PREINCUBATION): active; positive
mutagenic call (Test System: AMES SALMONELLA TYPHIMURIUM, Strain/Indicator: TA100, Metabolic Activation: RAT, LIVER, S-9, AROCLOR 1254 (10%), Method: PREINCUBATION): active; positive
mutagenic call (Test System: AMES SALMONELLA TYPHIMURIUM, Strain/Indicator: TA100, Metabolic Activation: RAT, LIVER, S-9, AROCLOR 1254, FLAVIN MONONUCLEOTIDE, Method: PREINCUBATION): active; positive
mutagenic call (Test System: AMES SALMONELLA TYPHIMURIUM, Strain/Indicator: TA100, Metabolic Activation: RAT, LIVER, S-9, AROCLOR 1254, Method: STANDARD PLATE): inactive; negative
mutagenic call (Test System: AMES SALMONELLA TYPHIMURIUM, Strain/Indicator: TA100, Metabolic Activation: RAT, LIVER, S-9, KANECHLOR 500, Method: PREINCUBATION): active; positive
mutagenic call (Test System: AMES SALMONELLA TYPHIMURIUM, Strain/Indicator: TA1535, Metabolic Activation: HAMSTER, LIVER, S-9, AROCLOR 1254 (10%), Method: PREINCUBATION): inactive; negative
mutagenic call (Test System: AMES SALMONELLA TYPHIMURIUM, Strain/Indicator: TA1535, Metabolic Activation: NONE, Method: PREINCUBATION): inactive; negative
mutagenic call (Test System: AMES SALMONELLA TYPHIMURIUM, Strain/Indicator: TA1535, Metabolic Activation: RAT, LIVER, S-9, AROCLOR 1254 (10%), Method: PREINCUBATION): inactive; negative
mutagenic call (Test System: AMES SALMONELLA TYPHIMURIUM, Strain/Indicator: TA1537, Metabolic Activation: HAMSTER, LIVER, S-9, AROCLOR 1254 (10%), Method: PREINCUBATION): inactive; negative
mutagenic call [2]: inactive; negative
mutagenic call (Test System: AMES SALMONELLA TYPHIMURIUM, Strain/Indicator: TA1537, Metabolic Activation: RAT, LIVER, S-9, AROCLOR 1254 (10%), Method: PREINCUBATION): inactive; negative
mutagenic call (Test System: AMES SALMONELLA TYPHIMURIUM, Strain/Indicator: TA1538, Metabolic Activation: NONE, Method: PREINCUBATION): active; positive

CCOCc1c(O)cc2c(c1O)C(=O)c1ccccc1C2=O
mutagenic call (Test System: AMES SALMONELLA TYPHIMURIUM, Strain/Indicator: TA97, Metabolic Activation: NONE, Method: PREINCUBATION): inactive; negative
mutagenic call (Test System: AMES SALMONELLA TYPHIMURIUM, Strain/Indicator: TA97, Metabolic Activation: RAT, LIVER, S-9, AROCLOR 1254, Method: PREINCUBATION): active; positive
mutagenic call (Test System: AMES SALMONELLA TYPHIMURIUM, Strain/Indicator: TA98, Metabolic Activation: NONE, Method: PREINCUBATION): active; positive
mutagenic call (Test System: AMES SALMONELLA TYPHIMURIUM, Strain/Indicator: TA98, Metabolic Activation: RAT, LIVER, S-9, AROCLOR 1254, Method: PREINCUBATION): active; positive
mutagenic call (Test System: AMES SALMONELLA TYPHIMURIUM, Strain/Indicator: TA98, Metabolic Activation: RAT, LIVER, S-9, PCB, Method: PREINCUBATION): active; positive
mutagenic call (Test System: AMES SALMONELLA TYPHIMURIUM, Strain/Indicator: TA100, Metabolic Activation: NONE, Method: PREINCUBATION): active; positive
mutagenic call (Test System: AMES SALMONELLA TYPHIMURIUM, Strain/Indicator: TA100, Metabolic Activation: RAT, LIVER, S-9, AROCLOR 1254, Method: PREINCUBATION): active; positive
mutagenic call (Test System: AMES SALMONELLA TYPHIMURIUM, Strain/Indicator: TA100, Metabolic Activation: RAT, LIVER, S-9, PCB, Method: PREINCUBATION): active; positive
mutagenic call (Test System: AMES SALMONELLA TYPHIMURIUM, Strain/Indicator: TA102, Metabolic Activation: NONE, Method: PREINCUBATION): active; positive
mutagenic call (Test System: AMES SALMONELLA TYPHIMURIUM, Strain/Indicator: TA102, Metabolic Activation: RAT, LIVER, S-9, Method: PREINCUBATION): active; positive
mutagenic call [2]: active; positive
mutagenic call (Test System: AMES SALMONELLA TYPHIMURIUM, Strain/Indicator: TA1537, Metabolic Activation: RAT, LIVER, S-9, AROCLOR 1254, Method: PREINCUBATION): active; positive
mutagenic call (Test System: AMES SALMONELLA TYPHIMURIUM, Strain/Indicator: TA1537, Metabolic Activation: RAT, LIVER, S-9, Method: PREINCUBATION): active; positive
mutagenic call (Test System: CHINESE HAMSTER V-79, Strain/Indicator: V-79/8-AZAGUANINE, Metabolic Activation: NONE, Method: STANDARD PLATE): inactive; negative
mutagenic call (Test System: CHINESE HAMSTER V-79, Strain/Indicator: V-79/8-AZAGUANINE, Metabolic Activation: PRIMARY RAT HEPATOCYTES, Method: STANDARD PLATE): active; positive

O[C@@H]1[C@H]2O[C@H]2c2c(ccc3nc4ccc5ccccc5c4cc23)[C@H]1O
mutagenic call [1]: active; positive
mutagenic call (Test System: AMES SALMONELLA TYPHIMURIUM, Strain/Indicator: TA100, Metabolic Activation: GUINEA PIG, LIVER, S-9, 3-METHYLCHOLANTHRENE, Method: STANDARD PLATE): active; positive
mutagenic call (Test System: AMES SALMONELLA TYPHIMURIUM, Strain/Indicator: TA100, Metabolic Activation: NONE, Method: STANDARD PLATE): active; positive
mutagenic call (Test System: CHINESE HAMSTER V-79, Strain/Indicator: V-79/6-THIOGUANINE, Metabolic Activation: NONE): active; positive
